# Measurements from the PolyMetriX glass transition set.
row,SMILES,glass transition temperature
1,*CCCCCCNC(=O)Cc1ccc(C(=O)N*)cc1 (repeat unit),104.00 °C
2,*c1ccc2c(c1)C(=O)N(c1cccc(Oc3ccc(P(=O)(c4ccccc4)c4ccc(Oc5cccc(N6C(=O)c7ccc(C(*)(C(F)(F)F)C(F)(F)F)cc7C6=O)c5)cc4)cc3)c1)C2=O (repeat unit),243.00 °C
3,*c1ccc2c(c1)C(=O)N(c1c(C(C)C)cc(Cc3cc(C(C)C)c(N4C(=O)c5ccc(C(*)(C(F)(F)F)C(F)(F)F)cc5C4=O)c(C(C)C)c3)cc1C(C)C)C2=O (repeat unit),278.50 °C
4,*CCCCCCCCCCSSS* (repeat unit),-70.00 °C
5,*CC(*)c1ccc(C([Si](C)(C)C)[Si](C)(C)C)cc1 (repeat unit),156.00 °C
6,*CCCCCCOc1ccc(/C=C2\CC/C(=C\c3ccc(OCCCCCCOP(=O)(O*)OCC)c(OC)c3)C2=O)cc1OC (repeat unit),75.00 °C
7,*CC(*)OC(=O)/C=C/c1ccccc1 (repeat unit),127.00 °C
8,*c1ccc(Cc2ccc(N3C(=O)c4ccc(OCCN(CCOc5ccc6c(c5)C(=O)N(*)C6=O)c5ccc(/C=C/c6ccc([N+](=O)[O-])cc6)cc5)cc4C3=O)cc2)cc1 (repeat unit),160.70 °C
9,*CCCCCCCCNC(=O)CCCCC(=O)N* (repeat unit),50.00 °C
10,*CCCCCCCCCCCCNC(=O)C(OC)C(OC)C(=O)N* (repeat unit),84.00 °C
11,*CCC[Si](*)(C)C (repeat unit),-55.00 °C
12,*CCCCC(=O)NCc1ccc(CNC(=O)CCCCO*)cc1 (repeat unit),70.00 °C
13,*c1ccc(-c2cc(CCCCCCBr)c(*)s2)s1 (repeat unit),51.00 °C
14,*c1ccc(C(C#N)(C(=O)OCC(C)C)C(*)(C#N)C(=O)OCC(C)C)cc1 (repeat unit),108.00 °C
15,*c1ccc2oc3ccc(S(*)(=O)=O)cc3c2c1 (repeat unit),360.00 °C
16,*c1cc(Oc2c(C)cc(-c3cc(C)c(Oc4cc(N5C(=O)c6ccc(-c7ccc8c(c7)C(=O)N(*)C8=O)cc6C5=O)cc(C(F)(F)F)c4)c(C)c3)cc2C)cc(C(F)(F)F)c1 (repeat unit),281.10 °C
17,*Cc1ccc(C(C)(C)c2ccc(Cn3c(=O)c4cc5c(=O)n(*)c(=O)c5cc4c3=O)o2)o1 (repeat unit),138.00 °C
18,*C(*)C(=O)OCCC (repeat unit),-15.00 °C

row,SMILES,glass transition temperature
1,*CC(*)n1ccnc1 (repeat unit),175.00 °C
2,*OC1CCC(OC(=O)OCCCCOC(*)=O)CC1 (repeat unit),30.00 °C
3,*OP(=O)(Oc1ccc(Br)cc1)Oc1ccc(S(=O)(=O)c2ccc(*)cc2)cc1 (repeat unit),89.00 °C
4,*NC1CCC(CC(C)(C)NC(=O)CCCCC(*)=O)CC1 (repeat unit),80.00 °C
5,*c1ccc2c(c1)C(=O)N(c1ccc(C(=O)Nc3ccc(Oc4ccc(-c5ccc(Oc6ccc(NC(=O)c7ccc(N8C(=O)c9ccc(C(*)(C(F)(F)F)C(F)(F)F)cc9C8=O)cc7)cc6)cc5)cc4)cc3)cc1)C2=O (repeat unit),296.00 °C
6,*CC(*)C(=O)c1ccc(Br)cc1 (repeat unit),101.50 °C
7,*CCN(*)C(=O)c1ccc(SC(F)(F)F)cc1 (repeat unit),100.00 °C
8,*CC(*)(C)C(=O)OC(C)C(C)(C)C (repeat unit),108.00 °C
9,*CC(*)(C)C(=O)OC1CCC(C(C)(C)C)CC1 (repeat unit),100.00 °C
10,*CCCCOC(=O)CCCCCCCCCCCCCCCCCCCCCCCCCCCCCCCCCCC(=O)O* (repeat unit),-55.00 °C
11,*O[Si](C)(C)O[Si](*)(C)c1c(F)c(F)c(F)c(F)c1F (repeat unit),-65.00 °C
12,*/C=C/C1CC(*)C2C(=O)N(CCCC)C(=O)C12 (repeat unit),131.00 °C
13,*c1ccc(-c2cc(-c3ccc(-c4ccccc4)cc3)cc(-c3ccc(N4C(=O)c5ccc(NC(=O)Nc6ccc(Oc7ccccc7-c7ccccc7Oc7ccc(NC(=O)Nc8ccc9c(c8)C(=O)N(*)C9=O)cc7)cc6)cc5C4=O)cc3)n2)cc1 (repeat unit),249.00 °C
14,*CC(*)C(=O)OCC(F)(F)C(F)C(F)(F)F (repeat unit),-22.00 °C
15,*CCCCCC(*)CC (repeat unit),-73.00 °C
16,*/C=C(\C#N)C(=O)NC1CCCCC1NC(=O)/C(C#N)=C/c1ccc(/C=C/c2ccc(N(c3ccccc3)c3ccc(N(c4ccccc4)c4ccc(/C=C/c5ccc(*)s5)cc4)cc3)cc2)s1 (repeat unit),240.00 °C
17,*CC(CC)(CC)CO* (repeat unit),-30.00 °C

# More lines, now with the values ahead:
row,glass transition temperature,SMILES
1,278.00 °C,*c1ccc(Oc2ccc(C(=O)c3ccc(C(=O)c4ccc(Oc5ccc(-c6nc(-c7ccc(-c8nc(*)c(-c9ccccc9)[nH]8)cc7)[nH]c6-c6ccccc6)cc5)cc4)cc3)cc2)cc1 (repeat unit)
2,171.00 °C,*Oc1ccccc1Oc1ccc(S(=O)(=O)c2ccc(*)cc2)cc1 (repeat unit)
3,36.00 °C,*Oc1ccc(CC(NC(=O)Cc2ccc(OC(=O)CCCCC(*)=O)cc2)C(=O)OCCCCCC)cc1 (repeat unit)
4,156.00 °C,*Oc1ccc(-c2ccc(Oc3ccc(Oc4cccc(Oc5ccc(*)cc5)c4C)cc3)c3ccccc23)c2ccccc12 (repeat unit)
5,106.20 °C,*CC(*)(C)C(=O)OCCCCCCCCOc1ccc(/N=N/c2ccc(C3OCC4(CO3)CC3C=CC4C3)cc2)cc1 (repeat unit)
6,356.00 °C,*C(=O)Nc1ccc(NC(=O)c2ccc3c(c2)C(=O)N(c2cc(-c4nc5ccccc5s4)cc(N4C(=O)c5ccc(*)cc5C4=O)c2)C3=O)cc1 (repeat unit)
7,312.00 °C,*C(=O)Nc1cccc(NC(=O)c2ccc3[nH]c(-c4cc(-c5nc6cc(*)ccc6[nH]5)cc(N5C(=O)c6ccccc6C5=O)c4)nc3c2)n1 (repeat unit)
8,61.00 °C,*CC(*)OCCOc1ccc(/N=N/c2ccc(C#N)cc2)cc1 (repeat unit)
9,53.00 °C,*CCCOc1cccc(C(=O)OC(=O)c2cccc(O*)c2)c1 (repeat unit)
10,214.00 °C,*Oc1ccc(C2(c3ccc(Oc4ccc(C(=O)c5ccc(*)cc5)cc4)cc3)CCC3CCCCC3C2)cc1 (repeat unit)
11,128.00 °C,*CC(*)C(=O)Nc1ccc2c(c1)C(=O)c1ccccc1C2=O (repeat unit)
12,134.00 °C,*CC1CCC(COC(=O)Nc2ccc(Cc3ccc(NC(=O)O*)cc3)cc2)CC1 (repeat unit)
13,253.00 °C,*Oc1ccc(C(c2ccc(Oc3ccc(C(=O)c4c(C(=O)c5ccc(*)cc5)c(-c5ccc(F)cc5)c(-c5ccc(F)cc5)c(-c5ccc(F)cc5)c4-c4ccc(F)cc4)cc3)cc2)(C(F)(F)F)C(F)(F)F)cc1 (repeat unit)
14,213.20 °C,*Nc1ccc(NC(=O)c2cc(C(=O)c3ccc(C(=O)O)c(C(*)=O)c3)ccc2C(=O)O)cc1 (repeat unit)
15,238.00 °C,*c1ccc(Oc2ccc(N3C(=O)c4cccc(Oc5c(Oc6cccc7c6C(=O)N(*)C7=O)cc(C(C)(C)C)cc5C(C)(C)C)c4C3=O)cc2)cc1 (repeat unit)
16,207.00 °C,*Oc1ccc(C2(c3ccc(OC(=O)c4cccc(C(*)=O)c4)c(C)c3)CCC3CCCCC3C2)cc1C (repeat unit)

row,glass transition temperature,SMILES
1,272.00 °C,*c1c(C)cc(Cc2cc(C)c(N3C(=O)c4ccc(Oc5ccc6ccc(Oc7ccc8c(c7)C(=O)N(*)C8=O)cc6c5)cc4C3=O)c(C)c2)cc1C (repeat unit)
2,161.00 °C,*Oc1ccc(C(c2ccccc2)(c2ccccc2)c2ccc(OC(=O)OC3C(C)(C)C(OC(*)=O)C3(C)C)cc2)cc1 (repeat unit)
3,60.00 °C,*CC#C/C(C#CCOC(=O)CCCCCCCCC(=O)O*)=C\c1ccc(C#Cc2ccc([N+](=O)[O-])cc2)cc1 (repeat unit)
4,89.00 °C,*Oc1ccc(C(c2ccc(OC(=O)c3ccc(OCCCCCCCCCCOc4ccc(C(*)=O)cc4)cc3)cc2)(C(F)(F)F)C(F)(F)F)cc1 (repeat unit)
5,212.00 °C,*c1ccc(C(=O)Oc2c(C)cc(C(c3cccnc3)c3cc(C)c(OC(=O)c4ccc(N5C(=O)CC(Nc6ccc(NC7CC(=O)N(*)C7=O)cc6)C5=O)cc4)c(C)c3)cc2C)cc1 (repeat unit)
6,128.00 °C,*Oc1ccc(C(CC)c2ccc(OC(*)=O)cc2)cc1 (repeat unit)
7,125.00 °C,*CCN(CCOC(=O)Nc1ccc(C)c(NC(=O)O*)c1)c1ccc(C(C#N)=C(C#N)C#N)cc1 (repeat unit)
8,290.00 °C,*Oc1ccc2c(c1)C1(CC2(C)C)CC(C)(C)c2ccc(OC(=O)c3ccc(C(*)=O)cc3)cc21 (repeat unit)
9,167.00 °C,*c1ccc2c(c1)C(=O)N(c1ccc(Oc3ccc(N4C(=O)c5ccc(C(*)O[Si](C)(C)O[Si](C)(C)O[Si](C)(C)C)cc5C4=O)cc3)cc1)C2=O (repeat unit)
10,175.00 °C,*Oc1ccc(S(=O)(=O)c2ccc(Oc3ccc(C(C)(C)c4ccc(Oc5ccc(C(=O)c6ccc(*)cc6)cc5)cc4)cc3)cc2)cc1 (repeat unit)
11,204.00 °C,*Oc1ccc(C(=O)c2cccc(NC(=O)c3cccc(C(=O)Nc4ccc(C(=O)c5ccc(*)cc5)cc4)c3)c2)cc1 (repeat unit)
12,268.00 °C,*Nc1cccc(C#Cc2ccc(NC(=O)c3cccc(C(*)=O)c3)cc2)c1 (repeat unit)
13,87.00 °C,*/C=C(\C#N)C(=O)OCCCCCCOC(=O)/C(C#N)=C/c1ccc2c(c1)c1cc(*)ccc1n2CCCCCCCCCCCOc1ccc(/C=C/c2ccc([N+](=O)[O-])cc2)cc1 (repeat unit)
14,170.00 °C,*Oc1ccc(C(c2ccccc2)c2ccc(OC(*)=O)cc2)cc1 (repeat unit)
15,193.00 °C,*C(=O)Nc1cccc2cccc(N3C(=O)CC(N4C(=O)c5ccc(*)cc5C4=O)C3=O)c12 (repeat unit)
